These results are taken from patent US20260062414A1, “NOVEL COCRYSTALS OF METHYLXANTHINES, THEIR POLYMORPHS AND PROCESS THEREOF” (FERTIS INDIA PVT LTD, priority 2022, published 2026).

Molecules are shown by their SMILES.

The data set is described as follows: Dissolution studies of cocrystals. Particulars: for Release rate of active ingredient compared to pure form: dissolution study, cocrystal vs pure methylxanthine. The protocol:
In an embodiment, the dissolution study of the cocrystals of Methylxanthines with the coformers Pterostilbene and Resveratrol were evaluated.

Turning to `COc1cc(/C=C/c2ccc(O)cc2)cc(OC)c1.Cn1c(=O)[nH]c2ncn(C)c2c1=O` [PX:PB, Paraxanthine: Pterostilbene (1:1) Cocrystal], the “Bioavailability compared to pure form” value is “more bioavailable”, the “Solubility compared to pure form” value is “lower solubility” and the “Release rate of active ingredient compared to pure form” value (“Release rate … compared to pure form” below) is “slow-release rate”.

Consider `COc1cc(/C=C/c2ccc(O)cc2)cc(OC)c1.COc1nc2c(c(=O)n1C)n(C)c(=O)n2C` [ML:PB, Methylliberine: Pterostilbene], for which the “Bioavailability compared to pure form” value was “more bioavailable”, the “Solubility compared to pure form” value is reported as “lower solubility” and the “Release rate … compared to pure form” value is listed as “slow-release rate”.

`Cn1c(=O)c2[nH]cnc2n(C)c1=O.Oc1ccc(/C=C/c2cc(O)cc(O)c2)cc1` [TP:RS, Theophylline: Resveratrol (1:1) Cocrystal]: the “Bioavailability compared to pure form” value is “more bioavailable”, the “Solubility compared to pure form” value is reported as “lower solubility” and the “Release rate … compared to pure form” value is “slow-release rate”.

Take `COc1cc(/C=C/c2ccc(O)cc2)cc(OC)c1.Cn1cnc2c1c(=O)[nH]c(=O)n2C` [TB:PB, Theobromine: Pterostilbene (1:1) Cocrystal]: the “Bioavailability compared to pure form” value is “better bioavailability” and the “Solubility compared to pure form” value was “improved solubility”.

Take `COc1cc(/C=C/c2ccc(O)cc2)cc(OC)c1.Cn1c(=O)c2c(ncn2C)n(C)c1=O` [CA:PB, Caffeine: Pterostilbene]: the “Bioavailability compared to pure form” value is listed as “more bioavailable” and the “Release rate … compared to pure form” value was “slow-release rate”.

Take `COc1cc(/C=C/c2ccc(O)cc2)cc(OC)c1.Cn1c(=O)c2c(n(C)c1=O)n(C)c(=O)n2C` [TC:PB, Theacrine: Pterostilbene]: the “Bioavailability compared to pure form” value is “more bioavailable”, the “Solubility compared to pure form” value is listed as “lower solubility” and the “Release rate … compared to pure form” value is “slow-release rate”.
